# In patent US10059733B2 (NUCORION PHARMACEUTICALS, INC., priority 2014, dated 2018):
# Read-outs that look alike come from different tables or passages of the source.
# How the values were obtained:
# HEK293 = assay: TC50 assay with human cancer cell lines, 96 h: HEK293; assay type: cell-based
# Method: (§3) Huh7 cells were maintained at 37° C. in a humidified atmosphere at 5% CO2 in DMEM containing 10% FBS. […] The cells were then treated with each compound at concentrations ranging from 500 μM to 0 μM in triplicate in DMEM media containing 2% FBS and 0.5% DMSO and without phenol red. After 48 h of treatment at 37° C., the relative number of living cells in each well was determined by using the CellTiter 96 system (Promega) according to the manufacturer's instructions. The 3-(4,5-dimethylthiazol-2-yl)-5-(3-carboxymethoxyphenyl)-2-(4-sulfophenyl)-2H-tetrazolium (MTS) and phenazine methosulfate (PMS) reagents were added to each well of the 96-well plate and the plate was incubated at 37° C. for approximately 2 h. The absorbance at 490 nm and 650 nm in each well was then determined by using a Flexstation 3 microplate reader (Molecular Dynamics). The absorbance determined at 650 nm was then subtracted from the absorbance determined at 490 nm to correct for light scattering. The corrected absorbance values representing the relative number of live cells in each condition were then plotted as a function of compound concentration, and the data were then fit to the following sigmoidal Emax equation by using Kaleidagraph: y=(Emax*x^Slope)/(TC50^Slope+x^Slope) where y is the relative corrected absorbance value, Emax is the maximum relative inhibition, x is the compound concentration, TC50 is the concentration of the compound at which the total cell population is reduced by 50%, and Slope is the slope of the curve.
# (§4) Huh7, HEPG2, HEK293, MCF-7 and BxPC3 cell lines were maintained at 37° C. in a humidified atmosphere at 5% CO2 in DMEM containing 10% FBS. […] The cells were then treated with each compound at concentrations ranging from 500 μM to 0 μM in triplicate in DMEM media containing 2% FBS and 0.5% DMSO and without phenol red.
# RPK9 cells = assay: TC50 assay in gemcitabine resistant (dCK deficient) RPK9 cells, 48 h; conditions: read-out: TC50 (μM) in RPK9 cells at 48 hr
# Method: (§1) Huh7 cells were maintained at 37° C. in a humidified atmosphere at 5% CO2 in DMEM containing 10% FBS. […] The cells were then treated with each compound at concentrations ranging from 500 μM to 0 μM in triplicate in DMEM media containing 2% FBS and 0.5% DMSO and without phenol red. After 48 h of treatment at 37° C., the relative number of living cells in each well was determined by using the CellTiter 96 system (Promega) according to the manufacturer's instructions. The 3-(4,5-dimethylthiazol-2-yl)-5-(3-carboxymethoxyphenyl)-2-(4-sulfophenyl)-2H-tetrazolium (MTS) and phenazine methosulfate (PMS) reagents were added to each well of the 96-well plate and the plate was incubated at 37° C. for approximately 2 h. The absorbance at 490 nm and 650 nm in each well was then determined by using a Flexstation 3 microplate reader ([…]). The absorbance determined at 650 nm was then subtracted from the absorbance determined at 490 nm to correct for light scattering. The corrected absorbance values representing the relative number of live cells in each condition were then plotted as a function of compound concentration, and the data were then fit to the following sigmoidal Emax equation by using Kaleidagraph: y=(Emax*x^Slope)/(TC50^Slope+x^Slope) where y is the relative corrected absorbance value, Emax is the maximum relative inhibition, x is the compound concentration, TC50 is the concentration of the compound at which the total cell population is reduced by 50%, and Slope is the slope of the curve.
# (§2) PK9 and RPK9 cells were maintained at 37° C. in a humidified atmosphere at 5% CO2 in Roswell Park Memorial Institute (RPMI) media containing 10% FBS. […] The cells were then treated with each compound at concentrations ranging from […] to 0 μM in triplicate in RPMI media containing 2% FBS and 0.5% DMSO and without phenol red. […] The RPK9 cells were derived from the parental PK9 cell line, and are deficient for dCK activity due to the partial deletion of the dCK gene.
# HCV luciferase replicon [1] = assay: IC50 assay: inhibition of the HCV luciferase replicon in Huh7 cells; assay type: cell-based; conditions: for IC50: Hepatitis C virus; for Therapeutic Index (TC50/IC50): TC50 in Huh7 / IC50 HCV replicon, 48 h
# Method: After 48 h of treatment at 37° C., the media in each well was removed, the cells were gently washed once with phosphate buffered saline (PBS) and subsequently lysed by the addition of Glo Lysis Buffer (Promega). After a 15 min incubation at room temperature to allow for complete cell lysis, Bright-Glo luciferase reagent (Promega) was added to each well and the relative luciferase activity in each well was determined by using a Glowmax 96 microplate luminometer (Promega).
# IC50 values determined using the above methods for inhibition of the HCV luciferase replicon in Huh7 cells are set forth in Table 1.
# All compounds were purified by HPLC.
# MCF-7 = assay: TC50 assay with human cancer cell lines, 96 h: MCF-7; assay type: cell-based
# Method: as §3, §4
# Huh7 = assay: TC50 assay with human cancer cell lines, 96 h: Huh7; assay type: cell-based
# Method: as §3, §4
# [2] = TC50 assay in Huh7 cells, 48 h (CellTiter 96); conditions: human
# Method: as §1
# The data in Table 1 were determined for cells exposed to drug for 48 h. The IC50 is the concentration of each compound necessary to inhibit the replication of the HCV luciferase replicon to 50%. “TC50,” refers to toxic concentration necessary to reduce the cell population by 50%. All compounds were purified by HPLC.
# BxPC3 = assay: TC50 assay with human cancer cell lines, 96 h: BxPC3; assay type: cell-based
# Method: as §3, §4
# PK9 cells = assay: TC50 assay in PK9 cells, 48 h; conditions: Homo sapiens, PK9, 48 h, read-out: TC50 (μM) in PK9 cells at 48 hr
# Method: as §1, §2
# HEPG2 = assay: TC50 assay with human cancer cell lines, 96 h: HEPG2; assay type: cell-based; conditions: HepG2, 96 h, read-out: TC50 HEPG2 (μM)
# Method: as §3, §4
# HCV luciferase replicon [3] = assay: Isobologram analysis of synergism with antiviral compound in HCV luciferase replicon; assay type: cell-based
# Method: Isobologram analysis was conducted to assess the potential synergistic interaction of representative disclosed compounds with representative antiviral compounds. The isobolgram analysis was conducted as previously described by Chou and Talalay (see Chou T. C. and Talalay P. “Analysis of combined drug effects: a new look at a very old problem.” Trends Pharmacol Sci 1983; 4:450-4; and Chou T. C. and Talalay P. “Quantitative analysis of dose-effect relationships: the combined effects of multiple drugs or enzyme inhibitors.” Adv Enzyme Regul 1984; 22:27-55; both of which are incorporated herein by reference in their entirety). The definitions of synergism are those described by Chou (see Chou, T. C. (2006) Theoretical basis, experimental design, and computerized simulation of synergism and antagonism in drug combination studies. Pharmacol Rev. 58(3):621-81, which is incorporated herein by reference in its entirety).
# In the synergism studies described herein, the antiviral compound shown in Table 6 was assessed in combination with a representative disclosed compound, Compound 1.
# [4] = HEK293, 96 h, read-out: TC50 HEK293 (μM)
# [5] = MCF7, 96 h, read-out: TC50 MCF-7 (μM)
# [6] = Huh-7, 96 h, read-out: TC50 Huh7 (μM)
# [7] = BXPC-3, 96 h, read-out: TC50 BxPC3 (μM)
# [8] = Huh-7, Huh7 cells containing HCV luciferase replicon, 48 h exposure, read-out: IC50
SMILES,Therapeutic Index (TC50/IC50) (HCV luciferase replicon [1]),IC50 (HCV luciferase replicon [1]; [8]),CC50 at 48 h ([2]; Huh7 cells),other results
COc1cc(C(=O)Nc2ccn([C@@H]3O[C@H](CO[P@@](=O)(N[C@@H](C)C(=O)OC(C)C)Oc4ccccc4)C(O)C3(F)F)c(=O)n2)cc(OC)c1OC (stereo in doubt) [Compound 3],210,,,"CC50 (HEK293; [4]): 1.1 µM; CC50 (RPK9 cells): 24.2 ± 4.2 µM; IC50 (HCV luciferase replicon [1]; Huh-7, 48 h): 0.274 ± 0.08 µM; CC50 (MCF-7; [5]): 0.683 µM; CC50 (Huh7; [6]): 8.37 µM; CC50 at 48 h [2]: 57.5 ± 11.6 µM; CC50 (BxPC3; [7]): 4.07 µM; CC50 (PK9 cells): 18.5 ± 11.9 µM; CC50 (HEPG2): 1.57 µM"
"CC(C)OC(=O)[C@H](C)NP(=O)(OC[C@H]1OC(n2ccc(NC(=O)C3Cc4ccccc4C3)nc2=O)C(F)(F)[C@@H]1O)Oc1ccccc1 (stereo in doubt) [Compound 13, (2S)-isopropyl 2-(((R)-(((2R,3R)-5-(4-(2,3-dihydro-1H-indene-2-carboxamido)-2-oxopyrimidin-1(2H)-yl)-4,4-difluoro-3-hydroxytetrahydrofuran-2-yl)methoxy)(phenoxy)phosphoryl)amino)-propanoate]",684,,,"IC50 (HCV luciferase replicon [1]; Huh-7, 48 h): 0.345 µM; CC50 at 48 h [2]: 236 µM"
"COC(=O)N[C@H](C(=O)N1CCC[C@H]1c1ncc(-c2ccc(-c3ccc(-c4cnc([C@@H]5CCCN5C(=O)[C@@H](NC(=O)OC)C(C)C)[nH]4)cc3)cc2)[nH]1)C(C)C [BMS-790052, carbamic acid, N,N′-[[1,1′-biphenyl]-4,4′-diylbis[1H-imidazole-5,2-diyl-(2S)-2,1-pyrrolidinediyl[(1S)-1-(1-methylethyl)-2-oxo-2,1-ethanediyl]]]bis-, C,C′-dimethyl ester, reference compound]",,,,"Combination Index (HCV luciferase replicon [3]; Compound 1 0.0 nM, BMS-790052 0.020 nM): 1.000; concentration of the single agent on the IC50 isobologram (Combination Index 1.000) (HCV luciferase replicon [3]; compound alone, other compound 0 nM): 0.020 nM"
"CCCC(CCC)C(=O)Nc1ccn([C@@H]2O[C@@H]3CO[P@@](=O)(OC(C)C)O[C@H]3C2(F)F)c(=O)n1 [Compound 2, N-(1-((2S,4aR,6R,7aR)-7,7-difluoro-2-isopropoxy-2-oxidotetrahydro-4H-furo[3,2-d][1,3,2]-dioxaphosphinin-6-yl)-2-oxo-1,2-dihydropyrimidin-4-yl)-2-propylpentanamide]",23.4,7.48 µM,175 ± 23 µM,CC50 (RPK9 cells): 537 ± 55 µM; CC50 (PK9 cells): 716 ± 104 µM
"O=C(Nc1ccn(C2O[C@H](CO)[C@@H](O)C2(F)F)c(=O)n1)c1ccc2c(c1)CCCC2 (stereo partly drawn) [Compound 5, N-(1-((4R,5R)-3,3-difluoro-4-hydroxy-5-(hydroxymethyl)tetrahydrofuran-2-yl)-2-oxo-1,2-dihydropyrimidin-4-yl)-5,6,7,8-tetrahydronaphthalene-2-carboxamide]","1,535",0.086 µM,132 µM,
"O=C(Nc1ccn(C2O[C@H](CO)[C@@H](O)C2(F)F)c(=O)n1)c1ccc2cc(Br)ccc2c1 (stereo partly drawn) [Compound 6, 6-bromo-N-(1-((4R,5R)-3,3-difluoro-4-hydroxy-5-(hydroxymethyl)tetrahydrofuran-2-yl)-2-oxo-1,2-dihydropyrimidin-4-yl)-2-naphthamide]",400,0.185 µM,74 µM,
"O=C(Nc1ccn(C2O[C@H](CO)[C@@H](O)C2(F)F)c(=O)n1)c1ccc2ccccc2c1 (stereo partly drawn) [Compound 7, N-(1-((4R,5R)-3,3-difluoro-4-hydroxy-5-(hydroxymethyl)tetrahydrofuran-2-yl)-2-oxo-1,2-dihydropyrimidin-4-yl)-2-naphthamide]",992,0.126 µM,125 µM,
"O=C(Nc1ccn(C2O[C@H](CO)[C@@H](O)C2(F)F)c(=O)n1)c1ccc2c(c1)C(=O)c1ccccc1C2=O (stereo partly drawn) [Compound 8, N-(1-((4R,5R)-3,3-difluoro-4-hydroxy-5-(hydroxymethyl)tetrahydrofuran-2-yl)-2-oxo-1,2-dihydropyrimidin-4-yl)-9,10-dioxo-9,10-dihydroanthracene-2-carboxamide]","19,450",0.0128 µM,249 µM,
"O=C(Nc1ccn(C2O[C@H](CO)[C@@H](O)C2(F)F)c(=O)n1)c1cccc2c1CCCC2 (stereo partly drawn) [Compound 9, N-(1-((4R,5R)-3,3-difluoro-4-hydroxy-5-(hydroxymethyl)tetrahydrofuran-2-yl)-2-oxo-1,2-dihydropyrimidin-4-yl)-5,6,7,8-tetrahydronaphthalene-1-carboxamide]",571,0.161 µM,92 µM,
"COc1ccc2cc(C(=O)Nc3ccn(C4O[C@H](CO)[C@@H](O)C4(F)F)c(=O)n3)ccc2c1 (stereo partly drawn) [Compound 10, N-(1-((4R,5R)-3,3-difluoro-4-hydroxy-5-(hydroxymethyl)tetrahydrofuran-2-yl)-2-oxo-1,2-dihydropyrimidin-4-yl)-6-methoxy-2-naphthamide]","1,796",0.0935 µM,168 µM,
"O=C(Nc1ccn(C2O[C@H](CO)[C@@H](O)C2(F)F)c(=O)n1)C1Cc2ccccc2C1 (stereo partly drawn) [Compound 11, N-(1-((4R,5R)-3,3-difluoro-4-hydroxy-5-(hydroxymethyl)tetrahydrofuran-2-yl)-2-oxo-1,2-dihydropyrimidin-4-yl)-2,3-dihydro-1H-indene-2-carboxamide]",">50,000",0.01 µM,> 500 µM,
"O=C(Nc1ccn(C2O[C@H](CO)[C@@H](O)C2(F)F)c(=O)n1)c1ccc2c(c1)CCC2 (stereo partly drawn) [Compound 12, N-(1-((4R,5R)-3,3-difluoro-4-hydroxy-5-(hydroxymethyl)tetrahydrofuran-2-yl)-2-oxo-1,2-dihydropyrimidin-4-yl)-2,3-dihydro-1H-indene-5-carboxamide]","6,451",0.0586 µM,378 µM,
O=C(Nc1ccn(C2O[C@H](CO)[C@@H](O)C2(F)F)c(=O)n1)c1ccc2c(c1)OCO2 (some centres unmarked) [Non-phosphorylated analog of Compound 4],7910,0.0598 ± 0.0084 µM,473 ± 74 µM,"CC50 (HEK293; HEK293, 96 h of treatment, read-out: TC50 HEK293): 4.09 µM; CC50 (RPK9 cells): > 500 µM; CC50 (MCF-7; MCF7, 96 h of treatment, read-out: TC50 MCF-7): 1.19 µM; CC50 (Huh7; Huh-7, 96 h of treatment, read-out: TC50 Huh7): 7.04 µM; CC50 (BxPC3; BXPC-3, 96 h of treatment, read-out: TC50 BxPC3): 0.72 µM"
CC(C)OC(=O)[C@H](C)N[P@](=O)(OC[C@H]1O[C@@H](n2ccc(N)nc2=O)C(F)(F)C1O)Oc1ccccc1 (some centres unmarked) [Phosphorylated analog of Gemcitabine],,,,CC50 (HEK293; [4]): 0.38 µM; CC50 (RPK9 cells): 21 µM; CC50 (MCF-7; [5]): 0.115 µM; CC50 (Huh7; [6]): 4.15 µM; CC50 (BxPC3; [7]): 0.76 µM; CC50 (PK9 cells): 11.2 µM; CC50 (HEPG2): 0.89 µM
